Drawing on patent US10577362B2, “Substituted 2, 4-diamino-quinoline derivatives for use in the treatment of proliferative diseases” (GENOSCIENCE PHARMA, priority 2016, dated 2020), this text covers viability for four molecules.

Format in all cases: cell-based, human
Assay [1] relates to HepG2 (hepatocellular carcinoma) cell line. Nature of the assay: CellTiter-Glo luminescent cell viability assay, HepG2. The settings on record: Homo sapiens, HepG2, HepG, 72 h; for viability at 4 µM: compound at 4 μM; for viability at 10 µM: compound at 10 μM. Here is the method: (§1) All cell lines were maintained in medium containing 1% penicillin-streptomycin (Dutscher, P06-07100) and 10% Fetal Bovine Serum (Hyclone Dutscher, RZK35922) cultured at 37° C. with 5% CO2. HepG2 (hepatocellular carcinoma), cell line was cultured in Dulbecco's modified Eagle's medium low glucose (Gibco, 21885025), Huh7 (hepatocellular carcinoma), HCT-116 (colorectal carcinoma), PANC-1 (prancreatic carcinoma) and A375 (malignant melanoma) cell lines were cultured in Dulbecco's modified Eagle's medium (Dutscher, L0103). MOLM-14 (acute myeloid leukemia) cell line was maintained in MEM alpha medium (Gibco, 22561-021). 786-0 (renal adenocarcinoma) cell lines were maintained in RPMI 1640 medium (Dutscher, L0498).
(§2) Cell viability was measured using the CellTiter-Glo® luminescent cell viability assay as described by the manufacturer (Promega, Ref G7571) using an Infinite F200Pro luminometer (Tecan). Briefly, for adherent cells, cells were plated onto 96-well plates (white with clear bottom) in 90 μL of media per well and were allowed to grow overnight before the assay. For cells growing in suspension, cells were plated onto 96-well plates 1 h before the assay.
(§3) Compounds were resuspended in H2O or DMSO and added at different concentrations to each well, and cell cultures were incubated for 72 h. Each diluent (H2O or DMSO) were used as a control, and all compounds were tested in a constant percentage of H2O or DMSO. On the day of the reading, plates are equilibrated 30 min at room temperature before the addition of 100 μL of CellTiter-Glo® and luminescence was measured using an Infinite F200Pro (Tecan). % cell viability were expressed as a percentage of the signal obtained for cell cultures treated with diluent. EC50 values were determined as the dose of compound required to reduce luminescent values to 50% of the signal obtained for cell cultures treated with diluent. The experimental data were analyzed using a computer program, Graphpad Prism v5 (GraphPad Software, Inc. La Jolla, Calif.). All points were at least done in duplicate.
In general terms: In ATP-based viability assays light output follows the ATP content of the culture.

The test system of assay [2] is Huh7 (hepatocellular carcinoma) cell line. Briefly: CellTiter-Glo luminescent cell viability assay, Huh7. The settings on record: Homo sapiens, Huh-7, 72 h; for viability at 4 µM: Huh7, compound at 4 μM; for viability at 10 µM: Huh7, compound at 10 μM. Here is the method:
as §1, §2, §3

The test system of assay [3] is 786-O (renal adenocarcinoma) cell line. Briefly: CellTiter-Glo luminescent cell viability assay, 786-O. To be noted: Homo sapiens, 786-0, 786-O, 72 h; for viability at 4 µM: compound at 4 μM; for viability at 10 µM: compound at 10 μM. Here is the method:
as §1, §2, §3

Assay [4] has as its system A375 (malignant melanoma) cell line. Nature of the assay: CellTiter-Glo luminescent cell viability assay, A375. The settings on record: Homo sapiens, A-375, 72 h; for viability at 4 µM: A375, compound at 4 μM; for viability at 10 µM: A375, compound at 10 μM. The procedure: as §1, §2, §3
Assay [5] deals with MOLM-14 (acute myeloid leukemia) cell line. Nature of the assay: CellTiter-Glo luminescent cell viability assay, MOLM-14. To be noted: Homo sapiens, 72 h; for viability at 4 µM: MOLM-14, compound at 4 μM; for viability at 10 µM: MOLM-14, compound at 10 μM. The procedure:
as §1, §2, §3

Assay [6] deals with HCT-116 (colorectal carcinoma) cell line. Briefly: CellTiter-Glo luminescent cell viability assay, HCT-116. To be noted: Homo sapiens, 72 h; for viability at 4 µM: HCT-116, compound at 4 μM; for viability at 10 µM: HCT-116, compound at 10 μM. Here is the method:
as §1, §2, §3

Structures are written as SMILES.

Broadly, the viability is a read-out of living cells in per cent, often relative to untreated cells. In the case of `Cc1cc(Nc2nc3ccccc3c(N3CCC(NC(C)(C)C)CC3)c2C#N)ccc1Nc1nccc(-c2cccnc2)n1` [Compound 3131CN, 2-[4-(4-(pyridin-3-yl)pyrimidin-2-ylamino)-3-methylphenylamino]-3-cyano-4-(4-tert-butylaminopiperidin-1-yl)quinoline], the viability at 4 µM in assay [1] was 80.6%; in assay [2] it was 87%; in assay [3], 42.6%; in assay [4], 79.4%; in assay [5], 80.1%; in assay [6] it was 63.9%. The viability at 10 µM in assay [1] is 0.1%; in assay [2], 69.8%; in assay [3], 0.1%; in assay [4], 0.1%; in assay [5] it was 7.3%; in assay [6], 0.1%.
Turning to `Cc1ccc(OC2CCN(c3c(C#N)c(NCc4ccc(Cl)cc4)nc4ccccc34)C2)cc1` (stereo not drawn) [Compound 3332CN, 2-(4-chlorobenzylamino)-3-cyano-4-[3-(4-methylphenoxy)pyrrolidin-1-yl]quinoline], the viability at 4 µM in assay [1] amounted to 65.6%; in assay [2], 95.3%; in assay [3], 52%; in assay [4] it was 108%; in assay [5], 104%; in assay [6], 101%. Also, the viability at 10 µM came out at 62.5% in assay [1]; 58.3% in assay [2]; 25% in assay [3]; 103% in assay [4]; 94.1% in assay [5]; 87.2% in assay [6].
As to `Cc1nccnc1OC1CCN(c2c(C#N)c(NCc3ccc(Cl)cc3)nc3ccccc23)C1` (stereo not drawn) [Compound 3362CN, 2-(4-chlorobenzylamin)-3-cyano-4-{3-[(3-methylpyrazin-2-yl)oxy]pyrrolidin-1-yl}quinoline], the viability at 4 µM in assay [1] turned out to be 78.5%; in assay [2], 66.7%; in assay [3] it was 15.3%; in assay [4] it was 81.6%; in assay [5] it was 105%; in assay [6], 46.8%. Besides, the viability at 10 µM in assay [1] was 52.5%; in assay [2], 35.1%; in assay [3], 5.6%; in assay [4], 68.6%; in assay [5], 88.6%; in assay [6], 31.4%.
On to `N#Cc1c(NCc2ccc(Cl)cc2)nc2ccccc2c1N1CCC(Oc2cccc(F)c2)CC1` [Compound 3228CN, 2-(4-chlorobenzylamino)-3-cyano-4-[4-(3-fluorophenoxy)piperidin-1-yl]quinoline], for which the viability at 4 µM in assay [1] came out at 96.7%; in assay [2], 117%; in assay [3], 97.9%; in assay [4] it was 98%; in assay [5], 107%; in assay [6], 101%. Besides, the viability at 10 µM was determined as 86.7% in assay [1]; 108% in assay [2]; 92.9% in assay [3]; 91.7% in assay [4]; 100% in assay [5]; 85.2% in assay [6].
